Series [1] deals with A/Mississippi/03/01 H1N1 wild type neuraminidase.
For series [2], the system named is H5N1 clade 1 A/Chicken/Vietnam/08/2004 neuraminidase. To be noted: 37°C.
Series [3] relates to H5N1 clade 2 A/Chicken/Bangli/BBVD-563/2007 neuraminidase. As to conditions: 37°C.
Series [4] relates to B/Perth/211/01 influenza B wild type neuraminidase.
The test system of series [5] is wild type viruses (neuraminidase).
For series [6], the target named is clade 1 H5N1 neuraminidase. To be noted: cited from earlier work.
For series [7], the target named is clade 2 H5N1 neuraminidase. To be noted: cited from earlier work.
Series [8] deals with H3N2 wild type neuraminidase. As to conditions: cited from earlier work.
The target of series [9] is B/Perth/211/01 wild type neuraminidase. To be noted: cited from earlier work.
The test system of series [10] is A/Fukui/45/04 H3N2 wild type neuraminidase.
The subject of series [11] is human influenza A strains (neuraminidase).

Marks after values point to notes of the source that are not given here.

By IC50 is commonly meant the concentration at which inhibition is half-maximal. Regarding `CC(=O)N[C@H]1[C@H]([C@H](O)[C@H](O)CO)OC(C(=O)O)=C[C@@H]1N=C(N)N` [Zanamivir], the “Time (T½) for reaction rates to reach half the maximum rate of the uninhibited control” value in series [1] is reported as 41.3 min; in [2], 27.7^* min; in series [3], 72.8^* min; in series [4], 24.6^* min. Moreover, in [5], the “T½ (range over viruses)” value fell in the range of 0.467 to 1.82 h. For the same molecule, the IC50 is 2.1 nM in [6], 1.3 nM in [7] and 8.9 nM in [9]. Besides, the “increase in IC50 from 10 to 60 min after addition of substrate in the preincubation reaction” value in series [6] is 4.5 fold; in series [7], 2.2 fold. Besides, the “changes in IC50 from 10 to 60 min in the preincubation reaction” value in series [8] is 1.3 fold.

For `CCC(CC)[C@H](NC(C)=O)[C@@H]1[C@H](O)[C@@H](C(=O)O)C[C@H]1N=C(N)N` [Peramivir, peramivir], the “Time (T½) for reaction rates to reach half the maximum rate of the uninhibited control” value was >240^* min in series [1], 59.9 min in [2], 84.4 min in [3] and above 4 h in series [10]. The same molecule yielded a T½ values in series [11] above 4 h. Further, the IC50 in series [9] was 2.8 nM.
